The results in this text go back to PubChem BioAssay (NCI).

What all share (assay): inhibition of tumour cell growth, NCI panel, 48 h
In assay [1] the test system is HT29 colon.
Assay [2] deals with M14 melanoma.
The test system of assay [3] is MDA-MB-231 breast.
In assay [4] the test system is NCI/ADR-RES ovarian.
Assay [5] concerns OVCAR-3 ovarian.
For assay [6], the system named is PC-3 prostate.
Assay [7] has as its system RXF 393 renal.
Assay [8] relates to SK-MEL-5 melanoma.
Assay [9] relates to SN12C renal.
For assay [10], the system named is UACC-62 melanoma.

The structures appear in SMILES notation. Values joined by “and” are separate entries in the source; they are usually repeats but may differ in a detail not shown here. Equal entries are not always repeated.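 Each compound was tested at five concentrations against cells in 96-well plates for 48 hours. GI50 is the concentration that inhibits growth by half. TGI: concentration producing complete growth inhibition.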

On to `COc1ccc(-c2ncnc3c2ncn3CC#CCCl)cc1`, for which the GI50 is 7.12 µM in assay [1]; 4.55 µM in assay [2]; 2.32 µM in assay [3]; 2.72 µM in assay [4]; 1.93 µM in assay [5]; 6.82 µM in [6]. The GI50 was 2.29 µM in assay [7], 3.16 µM in assay [8], 2.26 µM in [9] and 3.32 µM in assay [10]. In addition, the TGI in [1] stood at 24.6 µM; in assay [2], 17.4 µM; in assay [3], 8.28 µM; in [4], 8.15 µM; in assay [5], 5.75 µM; in assay [6], 24.7 µM. For the same compound, the TGI came out at 5.94 µM in assay [7], 12.4 µM in [8], 6.32 µM in assay [9] and 15.2 µM in assay [10].
`O=C(O)Cc1cccc2c(=O)cc(-c3ccccc3)oc12`: the GI50 in [1] was 489 µM; in assay [2], 519 µM; in assay [3], 834 µM; in [4], 194 µM; in assay [5], 568 µM; in assay [6] it was more than 955 µM. The GI50 in assay [7] was more than 862 µM; in [8] it was 407 µM; in assay [9], 508 µM; in assay [10], 475 µM. In addition, the TGI in assay [1] was more than 1000 µM; in assay [2], more than 1000 µM; in [3], more than 1000 µM; in assay [4], 250 µM and > 1000 µM; in assay [5], 250 µM and > 1000 µM; in assay [6], more than 1000 µM. Further, the TGI in [7] was 250 µM and > 1000 µM; in assay [8], 250 µM and > 876 µM; in assay [9], 250 µM and > 964 µM; in [10], more than 1000 µM.
With `COC(=O)/C=C1/SC(=Nc2cccc(Cl)c2)N(CCc2c[nH]c3ccc(O)cc23)C1=O`, the GI50 was 1.87 µM in assay [1]; 1.62 µM in assay [2]; 1.74 µM in assay [3]; 2.41 µM in assay [4]; 1.54 µM in assay [5]; 1.74 µM in [6]. In addition, the GI50 in assay [7] was 1.51 µM; in assay [8], 1.99 µM; in [9], 1.79 µM; in [10], 1.68 µM. Also, the TGI in [1] is 3.57 µM; in assay [2], 3.36 µM; in [3], 3.59 µM; in [4], 6.89 µM; in [5] it was 3.23 µM; in [6], 3.87 µM. Moreover, the TGI in [7] was 2.97 µM; in assay [8] it was 4.19 µM; in assay [9] it was 3.67 µM; in [10], 3.47 µM.
Turning to `CC1(C)N=C(N)N=C(N)N1c1ccc(CNC(=O)Nc2ccc(S(=O)(=O)F)c(Cl)c2)c(Cl)c1`, the GI50 in assay [1] was 0.195 µM; in [2] it was 1.24 µM; in [3] it was 15.6 µM; in assay [4], more than 90.8 µM; in [5], 6.34 µM; in assay [6] it was 0.0677 µM. Also, the GI50 in assay [7] was 0.525 µM; in assay [8], 0.88 µM; in [9] it was 0.867 µM; in assay [10], 0.303 µM. For the same compound, the TGI in assay [1] is more than 67.3 µM; in assay [2], more than 100 µM; in [3], more than 100 µM; in assay [4], more than 100 µM; in [5], more than 100 µM; in assay [6], more than 100 µM. The TGI in assay [7] was more than 100 µM; in assay [8], more than 74.7 µM; in assay [9], more than 100 µM; in assay [10] it was more than 100 µM.
As to `CC1(C)Oc2ccc3ccc(=O)oc3c2C(O)C1O` (stereo unspecified), the TGI was 71.3 µM in assay [1]; more than 100 µM in assay [2]; more than 100 µM in [3]; more than 100 µM in assay [4]; more than 100 µM in assay [5]; more than 100 µM in [6]. Besides, the TGI was more than 100 µM in [7], 29.4 µM in assay [8], more than 100 µM in assay [9] and more than 100 µM in [10].
Consider `CCSC[C@@H]1C[C@](O)(c2ccc(Cl)cc2)[C@@H](c2ccc(Cl)cc2)O1`, for which the GI50 in assay [1] was 15.6 µM; in assay [2], 15.3 µM; in assay [3], 18.2 µM; in assay [4], 20.5 µM; in assay [5], 18.8 µM; in assay [6], 20 µM. In addition, the GI50 was 23.2 µM in [7], 15.3 µM in [8], 17.6 µM in assay [9] and 13.9 µM in assay [10]. The TGI in assay [1] stood at 30.8 µM; in assay [2] it was 29.6 µM; in assay [3], 35.4 µM; in assay [4] it was 43.6 µM; in assay [5], 36.1 µM; in assay [6], 39.1 µM. For the same compound, the TGI in assay [7] was determined as 38.5 µM; in [8] it was 28.7 µM; in assay [9] it was 34.6 µM; in [10], 30.8 µM.
On to `CSc1cc([C@@H]2C[C@H]2c2ccc(Cl)cc2)on1`, for which the GI50 is 18.6 µM in assay [1]; 9.27 µM in assay [2]; 5.51 µM in [3]; 13.6 µM in assay [4]; 15.4 µM in [5]; 16 µM in assay [6]. The figures for the GI50 in [7], in [9] and in assay [10] were 2.14 µM, 5.17 µM and 11.3 µM, respectively. For the same compound, the TGI in assay [1] was more than 100 µM; in assay [2], more than 100 µM; in [3] it was 21.7 µM; in [4], 42.4 µM; in [5], 33.4 µM; in [6], 33.6 µM. In addition, the TGI in [7] came to 12.6 µM; in assay [9], 20.5 µM; in assay [10] it was 24.7 µM.
With `O=C1c2c(c(=O)[nH]c3ccccc23)[C@H](c2ccccc2)[C@@H]2CCCN12`, the GI50 in assay [2] is 3.53 µM; in assay [3], 3.06 µM; in assay [4] it was 3.05 µM; in assay [5], 2.46 µM; in assay [6], 6.2 µM; in assay [7] it was 1.88 µM. The figures for the GI50 in assay [8], in [9] and in assay [10] were 2.01 µM, 3.38 µM and 3.14 µM, respectively. In addition, the TGI is 14.5 µM in [2]; 27.5 µM in [3]; 36.4 µM in assay [4]; 7.1 µM in assay [5]; more than 100 µM in assay [6]; 4.34 µM in [7]. Besides, the TGI in assay [8] was 5.07 µM; in [9], more than 100 µM; in assay [10], 22.3 µM.
For `COc1ccc2c(c1)CCC1C2CC[C@@]2(C)C1CC[C@@H]2NC(=O)Cc1ccc(O)c(O)c1` (stereo partly specified), the GI50 is 10.3 µM in [1]; 4.05 µM in [3]; 10.7 µM in [4]; 3.7 µM in [5]; 6.3 µM in assay [6]; 10.7 µM in [7]. Moreover, the GI50 in assay [8] was 8.96 µM; in assay [9], 5.79 µM; in [10] it was 4.14 µM. For the same compound, the TGI in assay [1] worked out at 25.3 µM; in assay [3], 16.9 µM; in [4] it was 33.6 µM; in assay [5], 19.2 µM; in assay [6] it was 19.4 µM; in assay [7] it was 27.3 µM. For the same compound, the TGI is 21.8 µM in assay [8], 19.6 µM in [9] and 14.8 µM in assay [10].
On to `C=C(C)[C@@H]1CC[C@]2(CO)CC[C@]3(C)[C@H](CC[C@@H]4[C@@]5(C)CCCNC(C)(C)[C@@H]5CC[C@]43C)[C@@H]12`, for which the GI50 is 1.58 µM in assay [2]; 1.77 µM in [3]; 1.63 µM in [4]; 1.66 µM in assay [5]; 1.51 µM in assay [6]; 1.68 µM in [7]. Further, the GI50 in [8] is 1.38 µM; in [9], 1.62 µM; in assay [10] it was 1.82 µM. Besides, the TGI in [2] turned out to be 3.13 µM; in assay [3], 3.21 µM; in [4], 3.18 µM; in assay [5], 3.13 µM; in [6] it was 2.94 µM; in [7] it was 3.18 µM. Moreover, the TGI in assay [8] is 2.7 µM; in assay [9], 3.03 µM; in assay [10], 3.25 µM.
Regarding `CC1=CCC2CC1C(C(=O)c1c[nH]c3ccccc13)=NC2(C)C` (stereo unspecified), the TGI in assay [1], in assay [2], in assay [3], in assay [4], in assay [5] and in assay [6] was more than 100 µM each time. Also, the TGI in assay [8], in assay [9] and in [10] was more than 100 µM each time.
Consider `CC(C)(C)OC(=O)C1C(=O)NC(=O)CC1CC(OCc1ccccc1)C(OCc1ccccc1)C(COCc1ccccc1)OCc1ccccc1` (stereo unspecified), for which the TGI in assay [1] was > 100 µM and 23.5 µM; in [2], more than 100 µM; in assay [3], more than 100 µM; in assay [4], > 100 µM and 61.7 µM; in [5], more than 100 µM; in assay [6] it was more than 100 µM. Also, the TGI in assay [7] is 99.7 µM and 32.6 µM; in [8], > 100 µM and 37.6 µM; in assay [9], more than 100 µM. Besides, the GI50 in assay [2] was 55.1 µM and 27.2 µM; in assay [3], 42.8 µM and 6.81 µM; in assay [4] it was 36.8 µM and 12.1 µM; in assay [6], 54.7 µM and 8.16 µM; in [8], 22 µM and 10.6 µM; in assay [9] it was 95 µM and 36.4 µM.
